Laboratory results from patent publication US12728119B2, “Pharmaceutical composition for preventing or treating cancer comprising 3-ketoacyl CoA thiolase inhibitor and carnitine acylcarnitine carrier inhibitor” (NATIONAL CANCER CENTER, priority 2020, dated 2026).

Legend:
Assay type in all cases: cell-based
[1] = test system: A375 melanoma cell line; experiment: SRB analysis 3; settings: Gemcitabine 5 μM, 48 hours
Experimental: (§1) Through SRB analysis (n=3), the effect of triple combination treatment of a CAC inhibitor (KN510: omeprazole), ACAA inhibitor (KN713: trimetazidine) and other anticancer drug on cell growth in the cancer cells was analyzed. (see Table 11).
(§2) The SRB assay was performed as follows: each cell line (100 μl) was seeded into 96-well microtiter plates at densities ranging from 5,000 to 40,000 cells/well depending on the doubling time of each cell line. After 24 hours, drug (100 μl per well) was added to each well and the culture was incubated at 37° C. for 48 hours. Cells were then fixed in 50% TCA (50 μl per well) and plates were incubated at 4° C. for a minimum of 1 hour or a maximum of 3 hours. After that, the liquid was removed from the plate, then rinsed 5 times with water and dried for approximately 12-24 hours at room temperature (RT). After the fixed cells were stained with 0.4% SRB (100 μl per well) for 10 minutes at room temperature, the plates were washed 3 times with 1% glacial acetic acid and dried at room temperature for about 12-24 hours. SRB staining was dissolved in 10 mM Trizma base and absorbance was read at 515 nm. The effect of the drug was expressed as GI50 (50% growth inhibition), TGI (total growth inhibition) or LC50 (lethal concentration). GI50 is the maximum concentration at the moment of 50% inhibition of cell proliferation and IC50 is the concentration of the drug that inhibits the enzyme activity in vitro by 50% in this study.

[2] = test system: A549 non-small cell lung cancer (NSCLC) cell line; experiment: SRB analysis 3; settings: Gemcitabine 2.5 μM, 48 hours
Experimental: as §1, §2

[3] = test system: ACHN renal cancer cell line; experiment: SRB analysis 3; settings: Gemcitabine 2.5 μM, 48 hours
Experimental: as §1, §2

[4] = test system: AGS gastric cancer cell line; experiment: SRB analysis 3; settings: Gemcitabine 2.5 μM, 48 hours
Experimental: as §1, §2

[5] = test system: AsPC-1 pancreatic cancer (PDAC) cell line; experiment: SRB analysis 3; settings: Gemcitabine 2.5 μM, 48 hours
Experimental: as §1, §2

[6] = test system: COLO-205 colon cancer cell line; experiment: SRB analysis 3; settings: Gemcitabine 2.5 μM, 48 hours
Experimental: as §1, §2

[7] = test system: Caki-1 renal cancer cell line; experiment: SRB analysis 3; settings: Gemcitabine 2.5 μM, 48 hours
Experimental: as §1, §2

[8] = test system: DU145 prostate cancer cell line; experiment: SRB analysis 3; settings: Gemcitabine 5 μM, 48 hours
Experimental: as §1, §2

[9] = test system: H1975 non-small cell lung cancer (NSCLC) cell line; experiment: SRB analysis 3; settings: Gemcitabine 2.5 μM, 48 hours
Experimental: as §1, §2

[10] = test system: HCT-116 colon cancer cell line; experiment: SRB analysis 3; settings: Gemcitabine 2.5 μM, 48 hours
Experimental: as §1, §2

[11] = test system: Huh-7 liver cancer cell line; experiment: SRB analysis 3; settings: Gemcitabine 2.5 μM, 48 hours
Experimental: as §1, §2

[12] = test system: MCF7 breast cancer cell line; experiment: SRB analysis 3; settings: Gemcitabine 2.5 μM, 48 hours
Experimental: as §1, §2

[13] = test system: MDA-MB-231 breast cancer cell line; experiment: SRB analysis 3; settings: Gemcitabine 2.5 μM, 48 hours
Experimental: as §1, §2

[14] = test system: MIA PaCa-2 pancreatic cancer (PDAC) cell line; experiment: SRB analysis 3; settings: Gemcitabine 2.5 μM, 48 hours
Experimental: as §1, §2

[15] = test system: MKN45 gastric cancer cell line; experiment: SRB analysis 3; settings: MKN-45; Gemcitabine 2.5 μM; 48 hours
Experimental: as §1, §2

[16] = test system: OVCAR-8 ovarian cancer cell line; experiment: SRB analysis 3; settings: Gemcitabine 2.5 μM, 48 hours
Experimental: as §1, §2

[17] = test system: PC-3 prostate cancer cell line; experiment: SRB analysis 3; settings: Gemcitabine 5 μM, 48 hours
Experimental: as §1, §2

[18] = test system: SK-OV-3 ovarian cancer cell line; experiment: SRB analysis 3; settings: Gemcitabine 2.5 μM, 48 hours
Experimental: as §1, §2

[19] = test system: SK-hep-1 liver cancer cell line; experiment: SRB analysis 3; settings: Gemcitabine 2.5 μM, 48 hours
Experimental: as §1, §2

[20] = test system: UACC62 melanoma cell line; experiment: SRB analysis 3; settings: Gemcitabine 5 μM, 48 hours
Experimental: as §1, §2

[21] = test system: T87G glioblastoma (GBM) cell line; experiment: SRB analysis 3; settings: Gemcitabine 5 μM, 48 hours
Experimental: as §2, with “Through SRB analysis (n=3), the effect of triple combination treatment of a CAC inhibitor ([…] inhibitor (KN713: trimetazidine) and other anticancer drug on cell growth in the cancer cells was analyzed. (see Table 11). The” for “The”, “nm.” for “nm. The effect of the drug was expressed as GI50 (50% growth inhibition), TGI (total growth inhibition) or LC50 (lethal concentration). GI50 is the maximum concentration at the moment of 50% inhibition of cell proliferation and IC50 is the concentration of the drug that inhibits the enzyme activity in vitro by 50% in this study.”

[22] = test system: U87MG glioblastoma (GBM) cell line; experiment: SRB analysis 3; settings: Gemcitabine 5 μM, 48 hours
Experimental: as §2, with “Through SRB analysis (n=3), the effect of triple combination treatment of a CAC inhibitor ([…] inhibitor (KN713: trimetazidine) and other anticancer drug on cell growth in the cancer cells was analyzed. (see Table 11). The” for “The”, “nm.” for “nm. The effect of the drug was expressed as GI50 (50% growth inhibition), TGI (total growth inhibition) or LC50 (lethal concentration). GI50 is the maximum concentration at the moment of 50% inhibition of cell proliferation and IC50 is the concentration of the drug that inhibits the enzyme activity in vitro by 50% in this study.”

[23] = test system: cancer cells; experiment: SRB analysis 3, triple combination, summary over cancer panels
Experimental: as §1, §2

SMILES: Nc1ccn([C@@H]2O[C@H](CO)[C@@H](O)C2(F)F)c(=O)n1 [Gemcitabine]
- cell growth (Control = 100) [1]: 25.12
- cell growth (Control = 100) [2]: 19.65
- cell growth (Control = 100) [3]: −47.9775
- cell growth (Control = 100) [4]: 15.95
- cell growth (Control = 100) [5]: 20.83
- cell growth (Control = 100) [6]: 6.029
- cell growth (Control = 100) [7]: 28.94
- cell growth (Control = 100) [8]: 45.33
- cell growth (Control = 100) [9]: 16.14
- cell growth (Control = 100) [10]: 3.788
- cell growth (Control = 100) [11]: 33.13
- cell growth (Control = 100) [12]: 12.31
- cell growth (Control = 100) [13]: 65.05
- cell growth (Control = 100) [14]: 25.9
- cell growth (Control = 100) [15]: 36.14
- cell growth (Control = 100) [16]: 21.24
- cell growth (Control = 100) [17]: 48.0
- cell growth (Control = 100) [18]: 24.21
- cell growth (Control = 100) [19]: 22.18
- cell growth (Control = 100) [20]: 31.60
- cell growth (Control = 100) [21]: 53.69
- cell growth (Control = 100) [22]: 3.67
- Positive/Negative (triple combination of KN510, KN713 and the listed anticancer drug) ([23]; Breast Cancer, BT-549, MDA MB 231): negative
- Positive/Negative (triple combination of KN510, KN713 and the listed anticancer drug) ([23]; Colon Cancer, HT-29, COLO-205): negative
- Positive/Negative (triple combination of KN510, KN713 and the listed anticancer drug) ([23]; GBM, U87MG, T87G): negative
- Positive/Negative (triple combination of KN510, KN713 and the listed anticancer drug) ([23]; Liver Cancer, SNU-449, Huh-7): negative
- Positive/Negative (triple combination of KN510, KN713 and the listed anticancer drug) ([23]; NSCLC, A549, H522): negative
- Positive/Negative (triple combination of KN510, KN713 and the listed anticancer drug) ([23]; Ovarian Cancer, SK-OV-3, OVCAR-3): negative
- Positive/Negative (triple combination of KN510, KN713 and the listed anticancer drug) ([23]; PDAC, MIA PaCa-2, PANC-1): Positive
- Positive/Negative (triple combination of KN510, KN713 and the listed anticancer drug) ([23]; Prostate Cancer, PC-3, DU-145): Positive
- Positive/Negative (triple combination of KN510, KN713 and the listed anticancer drug) ([23]; Renal cell carcinoma, ACHN, CAKI-1): negative
- Positive/Negative (triple combination of KN510, KN713 and the listed anticancer drug) ([23]; Stomach Cancer, MKN-28, AGS): negative
- Positive/Negative (triple combination of KN510, KN713 and the listed anticancer drug) ([23]; melanoma, UACC62, A375): Positive
